The data set is described as follows: Human HepG2 cell viability assay in 384 well format. Type of data set: toxicity, cell-based. Set-up: dose 125 nL, time 70.5 hour; concentration not given beside the values. Conditions: HepG2 cells, read-out: Inhibition.
With `Cc1nc(N2CCC3(CCCNC3=O)C2)nc2c1CCCC2` (centres undefined), the cytotoxicity at 70.5 h is -3.11%. The figure for `Cc1cc(C)c(C(=O)NC2CCN(c3ncccc3C#N)CC2)c(=O)[nH]1` is -11.1%; for `CCn1ccnc1C1CCN(Cc2cccc(C)n2)CC1` it is 2.62%; for `CC(C)=CCN1CCN(C(=O)c2snnc2C)[C@H]2CS(=O)(=O)C[C@H]21` it is -9.09%. The result for `Cc1cccc(=O)n1CCCNc1nc(N(C)C)nc2c1CCNC2` reads 18.8%; that for `COc1ccc2[nH]nc(CN3CCN(Cc4cccc(F)c4)CC3)c2c1`, 4.06%. The result for `Cc1nc[nH]c1CN1CCCC12CCN(c1nc3ccccc3s1)CC2` reads -1.37%; that for `Cc1nc(CCN)cc(N2CCC(O)(c3ccc(Cl)cc3)CC2)n1`, 19.3%. For `Nc1nnc(CCNc2ncnc3c2CCN(C(=O)C2CC2)C3)s1`, the cytotoxicity at 70.5 h is -4.19%. The figure for `O=C(NCCCn1cnnc1)C1CCCN(C2CCCC2)C1` (centres undefined) is 26.7%.

As for `COc1ccc(CCN)cc1-c1ccc(S(C)(=O)=O)cc1`, the cytotoxicity at 70.5 h is -8.83%. The figure for `CN(C)c1cnn(CC(=O)N2CCN(c3ccccc3)CC2)c(=O)c1` is -5.83%; for `CCc1cc(C(=O)N2CCCn3nc(CCC(=O)O)cc3C2)cs1` it is -8.44%; for `O=S(=O)(NCCn1cc(C2CCOC2)nn1)c1ccc(Cl)cc1` (centres undefined) it is 17.5%. The result for `COc1ccc(OC)c(C2CCN(C(=O)C3CCOCC3)C2)c1` (centres undefined) reads -6.78%. The result for `Cc1cc(F)ccc1OC1(C(=O)O)CCN(Cc2c[nH]cn2)CC1` reads -4.85%; that for `CCC[C@H]1CN(Cc2ccc(N(C)C)nc2)C[C@@H]1NC(=O)CSC`, -6.28%; that for `COCCC(=O)N1CCCC2(CCC(=O)N(CCc3c[nH]cn3)C2)C1` (centres undefined), -5.35%.

Regarding `CCOc1cccc(C(=O)N2C[C@H]3CC[C@@H]2CN(C(=O)C2CCC2)C3)c1`, the cytotoxicity at 70.5 h turned out to be 23.1%. Regarding `CCOC(=O)CNC(=O)N1CCCC(CNC(=O)c2ccco2)C1` (centres undefined), the cytotoxicity at 70.5 h was -1.85%. In the case of `CCC(=O)Nc1cccc(OCC(=O)N(C)Cc2nc(C)c[nH]2)c1`, the cytotoxicity at 70.5 h was -4.8%. The result for `COc1ccc(C(=O)C2CCCN(CCc3ccccc3)C2)c(OC)c1` (centres undefined) reads 18.4%; that for `CS(=O)(=O)N1CCC(Oc2ccc(C(=O)NCC3CCC3)cc2Cl)CC1`, -12.8%. The figure for `O=C(O)CSc1nnc(-c2cn[nH]c2)n1-c1ccccc1C(F)(F)F` is -3.6%.

On to `CC[C@@H](NC(C)=O)C(=O)NCc1cccnc1Oc1ccccc1OC`, for which the cytotoxicity at 70.5 h worked out at 8.31%. The figure for `COc1ccc(F)c(-c2nccn2CCN2CCCC2)c1` is 33.7%. The result for `Cc1ccnc(NCC2(N(C)C)CCOCC2)n1` reads -2.1%; that for `COc1cc(C)cc(C(C(=O)O)N2CCN(C3CCCC3)CC2)c1OC` (centres undefined), -2.66%; that for `Cc1ccccc1N1CCN(C(=O)Cc2ccc3c(c2)OCO3)CC1=O`, -2.79%. The figure for `CC(C)(O)CCc1cccc(C(=O)N2CCC3(CCO3)CC2)c1` is -1.91%; for `O=C(N[C@@H]1CCN(Cc2ccc(F)cc2F)C[C@H]1O)c1cccnc1` it is 8.03%; for `CCc1nc2c(c(N(C)Cc3nncn3CCOC)n1)CCNCC2` it is -8.26%. For the compound `Cn1cc(CNCC2(O)CCCN(Cc3ccc(F)c(F)c3)C2=O)cn1` (centres undefined), the cytotoxicity at 70.5 h is -3.67%. The result for `CNCc1n[nH]c(=O)n1-c1ccccc1Oc1ccccc1` reads 1.39%; that for `CCS(=O)(=O)c1ncc(CN(C)CCc2ccccn2)n1CCOC`, -8.19%; that for `Cc1noc(C)c1CN(C)c1ncnc2onc(C)c12`, 9.42%. The result for `COC(=O)CC1CCN(C(=O)Nc2ccc(-c3ccn[nH]3)cc2)C1` (centres undefined) reads 1.65%. The result for `CCC1CN(C(=O)c2csc3nc(-c4ccc(Cl)cc4)cn23)CCN1` (centres undefined) reads -12.3%. As for `Cc1c(CN2CC[C@@H](N3CCC(O)CC3)[C@H](O)C2)[nH]c2ccc(Cl)cc12`, the cytotoxicity at 70.5 h is -0.941%. On to `COc1c(C)cnc(CN(C)C2CCOC3(CCOCC3)C2)c1C` (centres undefined), for which the cytotoxicity at 70.5 h is -19.1%. The figure for `CC(=O)NCc1cc2n(n1)CCN(Cc1cccc(Cl)c1F)C2` is 36.9%; for `CNc1nc(C(=O)N2C[C@@H]3CCN(C)[C@@H]3C2)cs1` it is -3.23%.

`CCn1c(C2CCCNC2)nn(Cc2ccc(C(=O)NC)o2)c1=O` (centres undefined): the cytotoxicity at 70.5 h is -3.04%. The result for `Cc1nc(CC(=O)N2CCCC[C@H](N(C)C)C2)cs1` reads -7.83%.

For the compound `Cc1nccn1-c1ccc(N2CCC(NC(C)CC(C)C)CC2)cc1` (centres undefined), the cytotoxicity at 70.5 h amounted to 10.6%. The figure for `CCn1nc(C)c(CN(CCOC)C(=O)c2cnc(C)nc2O)c1C` is -6.8%. The figure for `CN(C)c1cncc(-c2ccnc3c2ccn3C)n1` is -0.942%; for `Cc1ccc(OC2(C(=O)O)CCN(C/C=C/c3ccco3)CC2)cc1` it is -7.6%; for `COc1ccc(C(=O)O)cc1-c1cccc2c1CCNC2` it is -11.6%. The figure for `COc1ccc2[nH]nc(CN3CCC(C(C)N(C)C)CC3)c2c1` (centres undefined) is 1.23%; for `Cc1ncnc(NCC(C)N(C)c2ccccc2)c1C` (centres undefined) it is 29.1%; for `CCC[C@@H]1CN(Cc2ccc3c(c2)OCCO3)C[C@H]1C(=O)O` it is -0.0956%. For the compound `CC(C)NS(=O)(=O)c1cc(C(=O)O)cc(-n2cc3c(n2)CCC3)c1`, the cytotoxicity at 70.5 h is -0.272%.

As for `O=C1CCCN1CCc1noc(-c2ccc(Cl)cc2)n1`, the cytotoxicity at 70.5 h is -10.6%. The result for `O=C(CCc1cc2n(n1)CCCNC2)N1CCC(N2CCOC2=O)CC1` reads -3.48%; that for `O=C(N[C@H]1COC[C@@H]1N1CCCC1)c1csc(Cc2ccccc2)n1`, -14.1%.

In the case of `Cc1cc(C)n(C2CN(C(=O)Cn3c(C)cc(=O)c4ccccc43)C2)n1`, the cytotoxicity at 70.5 h was -5.3%. Regarding `O=C1CCC2(CCCN(c3ncc(Cl)cc3F)C2)CN1CC1CC1` (centres undefined), the cytotoxicity at 70.5 h was -1.6%. The figure for `CCSc1ccc(C(=O)N2CC[C@](C)(O)[C@H](C)C2)s1` is -10.1%; for `C[C@@H]1CN(C(=O)c2cc(Cn3ccc4ccccc43)[nH]n2)C[C@H](C)O1` it is 26.1%. The figure for `COc1ccccc1C1CNC(=O)c2nc(-c3c(C)n[nH]c3C)[nH]c2C1` (centres undefined) is -4.74%. The figure for `CN(C)S(=O)(=O)NCc1nc(-c2cccc(F)c2)c(-c2ccccn2)[nH]1` is -0.435%. On to `CC(=O)N1CCC(C(=O)N2CCOC(CC3CCCCC3)C2)CC1` (centres undefined), for which the cytotoxicity at 70.5 h worked out at 24.3%. The result for `CC(O)c1cn(C2CCN(C(=O)C3(C)CCCCC3)CC2)nn1` (centres undefined) reads 14.9%; that for `COc1ccc(CCN)cc1-c1ccc(O)cc1`, -13.9%.

`CC(C)(O)CCc1cccc(C(=O)NCc2nccs2)c1`: the cytotoxicity at 70.5 h is 3.29%. The figure for `Nc1ncc(C(=O)N2CCCC(N)CC2)c(-c2ccccc2)n1` (centres undefined) is 7.49%. With `CCOC(=O)C1(Cc2ccc(Cl)cc2)CCN(Cc2ncc[nH]2)CC1`, the cytotoxicity at 70.5 h was -10.4%. The result for `Oc1cccc(CN2C[C@H]3CC[C@@H]2CN(Cc2cccnc2)C3)c1` reads 3.01%.

(Values after ChEMBL document CHEMBL3507680, “University of Dundee, Gates Library screen for HepG2 cell viability”.)
